pIC50: −log10 of the molar value. “And” between values parts separate entries of the source, which are not always exact repeats. Equal values may be shown once.
System: 349418-098-R-PDC complex spheroid viability
Assay: Anticancer human tumor 349418-098-R-PDC patient-derived lung adenocarcinoma cell line growth inhibition
Conditions: for viability, T/C: stronger effect = lower value; active = viability on the fitted dose curve at most 10% of control; inactive = the rest
Summary of the method: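 Drug combinations with the LSD1 inhibitor iadademstat tested on tumor cells co-cultured as spheroids with endothelial cells and mesenchymal stem cells. Concentrations descended in half-log increments from clinical Cmax or 10 microM.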

[1] = curve of first compound, second compound 0.1 µM
[2] = curve of first compound, second compound 0.316 µM
[3] = curve of first compound, second compound 1 µM
[4] = curve of first compound, second compound 3.16 µM
[5] = curve of first compound, second compound 10 µM
[6] = second compound 0.1 µM, first compound 0.00949 µM
[7] = second compound 0.1 µM, first compound 0.03 µM
[8] = second compound 0.1 µM, first compound 0.0949 µM
[9] = second compound 0.1 µM, first compound 0.3 µM
[10] = second compound 0.1 µM, first compound 0.949 µM
[11] = second compound 0.1 µM, first compound 3 µM
[12] = second compound 0.316 µM, first compound 0.00949 µM
[13] = second compound 0.316 µM, first compound 0.03 µM
[14] = second compound 0.316 µM, first compound 0.0949 µM
[15] = second compound 0.316 µM, first compound 0.3 µM
[16] = second compound 0.316 µM, first compound 0.949 µM
[17] = second compound 0.316 µM, first compound 3 µM
[18] = second compound 1 µM, first compound 0.00949 µM
[19] = second compound 1 µM, first compound 0.03 µM
[20] = second compound 1 µM, first compound 0.0949 µM
[21] = second compound 1 µM, first compound 0.3 µM
[22] = second compound 1 µM, first compound 0.949 µM
[23] = second compound 1 µM, first compound 3 µM
[24] = second compound 3.16 µM, first compound 0.00949 µM
[25] = second compound 3.16 µM, first compound 0.03 µM
[26] = second compound 3.16 µM, first compound 0.0949 µM
[27] = second compound 3.16 µM, first compound 0.3 µM
[28] = second compound 3.16 µM, first compound 0.949 µM
[29] = second compound 3.16 µM, first compound 3 µM
[30] = second compound 10 µM, first compound 0.00949 µM
[31] = second compound 10 µM, first compound 0.03 µM
[32] = second compound 10 µM, first compound 0.0949 µM
[33] = second compound 10 µM, first compound 0.3 µM
[34] = second compound 10 µM, first compound 0.949 µM
[35] = second compound 10 µM, first compound 3 µM
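Also: spheroids exposed to agents for seven days before readout.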
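For viability, T/C in this document: 100% = DMSO vehicle control wells.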

O=C(C=Cc1cccc(S(=O)(=O)Nc2ccccc2)c1)NO + NC1CC1c1ccc(-c2cccc(O)c2)cc1
7.44: pIC50 [5]
7.26: pIC50 [1] | pIC50 [2]
7.23: pIC50 [4]
7.27: pIC50 [3]
inactive: viability, T/C [6] 76% | viability, T/C [7] 70% | viability, T/C [8] 20.3% | viability, T/C [9] 3.17% | viability, T/C [10] 0.96% | viability, T/C [11] 103% | viability, T/C [12] 76.8% | viability, T/C [13] 70.2% | viability, T/C [14] 19.2% | viability, T/C [15] 3.03% | viability, T/C [16] 0.63% | viability, T/C [17] 103% | viability, T/C [18] 83.1% | viability, T/C [19] 68.7% | viability, T/C [20] 20.3% | viability, T/C [21] 3.41% | viability, T/C [22] 0.58% | viability, T/C [23] 103% | viability, T/C [24] 77.7% | viability, T/C [25] 78.5% | viability, T/C [26] 22.2% | viability, T/C [27] 3.57% | viability, T/C [28] 0.78% | viability, T/C [29] 96.6% | viability, T/C [30] 81.5% | viability, T/C [31] 56.3% | viability, T/C [32] 14.6% | viability, T/C [33] 3.03% | viability, T/C [34] 0.44% | viability, T/C [35] 58.3%

O=C(C=Cc1cccc(S(=O)(=O)Nc2ccccc2)c1)NO
6.93 and 7.28: pIC50 (curve of compound)
inactive: viability, T/C (compound 0.00949 µM) 81.2% and 75% | viability, T/C (compound 0.03 µM) 71.6% and 70.5% | viability, T/C (compound 0.0949 µM) 58.6% and 19.1% | viability, T/C (compound 0.3 µM) 17.8% and 2.96%
3.74% and 0.75%: viability, T/C (compound 0.949 µM)

Nc1ccccc1NC(=O)c1ccc(CNC(=O)OCc2cccnc2)cc1 + NC1CC1c1ccc(-c2cccc(O)c2)cc1
6.87: pIC50 [5]
7.08: pIC50 [1]
active: viability, T/C [10] 6.54% | viability, T/C [11] 3.26% | viability, T/C [16] 6.05% | viability, T/C [17] 3.43% | viability, T/C [22] 6.06% | viability, T/C [23] 3.46% | viability, T/C [28] 6.45% | viability, T/C [29] 2.77% | viability, T/C [34] 5.86% | viability, T/C [35] 2.77%
6.84: pIC50 [4]
6.92: pIC50 [3]
inactive: viability, T/C [6] 94% | viability, T/C [7] 68.2% | viability, T/C [8] 53.2% | viability, T/C [9] 20.4% | viability, T/C [12] 102% | viability, T/C [13] 84.8% | viability, T/C [14] 53.8% | viability, T/C [15] 17.8% | viability, T/C [18] 106% | viability, T/C [19] 83.1% | viability, T/C [20] 61.2% | viability, T/C [21] 22.6% | viability, T/C [24] 102% | viability, T/C [25] 84.4% | viability, T/C [26] 67.9% | viability, T/C [27] 23.9% | viability, T/C [30] 93.3% | viability, T/C [31] 81.7% | viability, T/C [32] 64.3% | viability, T/C [33] 21.7%
6.99: pIC50 [2]

CC1(C)CCC(CN2CCN(c3ccc(C(=O)NS(=O)(=O)c4ccc(NCC5CCOCC5)c([N+](=O)[O-])c4)c(Oc4cnc5[nH]ccc5c4)c3)CC2)=C(c2ccc(Cl)cc2)C1
13.5% and 0.24%: viability, T/C (compound 10 µM)
5.34 and 5.80: pIC50 (curve of compound)
inactive: viability, T/C (compound 0.0316 µM) 98.4% and 106% | viability, T/C (compound 0.1 µM) 88.2% and 103% | viability, T/C (compound 0.316 µM) 95.9% and 91.1% | viability, T/C (compound 1 µM) 84.3% and 68.4% | viability, T/C (compound 3.16 µM) 67.7% and 24.9%

COc1cc(C2c3cc4c(cc3C(OC3OC5COC(C)OC5C(O)C3O)C3COC(=O)C23)OCO4)cc(OC)c1O (stereo not given)
active: viability, T/C (compound 0.949 µM) 7.1% and 4.19% | viability, T/C (compound 3 µM) 4.85% and 3.34%
7.04 and 7.28: pIC50 (curve of compound)
inactive: viability, T/C (compound 0.00949 µM) 93.8% and 95.9% | viability, T/C (compound 0.03 µM) 85.4% and 73.6% | viability, T/C (compound 0.0949 µM) 48.8% and 24.1%
13.5% and 6.74%: viability, T/C (compound 0.3 µM)
